Data reported in patent publication US20250134889A1, “TARGETING IRE1 KINASE AND FMRP FOR PROPHYLAXIS, MANAGEMENT AND TREATMENT OF ATHEROSCLEROSIS” (CEDARS-SINAI MEDICAL CENTER, priority 2022, published 2025).

System: peritoneal macrophages
Assay: In vivo foam cell formation assay
Parameters: species or system mouse
Conditions: Apoe-/- mice, WD 12 weeks, 30 mg/kg/day in the last 4 weeks, ORO staining
Procedure: FIGS. 2A-2M depict that FMRP deficiency enhances RCT while reducing foam cell formation in vivo. (Data are mean±SEM. Unpaired t-test with Welch's correction. * P≤0.05, ** P≤0.01, *** P≤0.001.) • 2A. Fmr1^+/+ and Fmr1^−/− mice were injected with AAV_PCSK9 and fed with 16 weeks of WD. Residential PM were stained with Oil Red O (ORO) and imaged (n=7; Scale bar=50 μm). • 2B. Apoe-/mice were fed with WD (12 weeks) and injected with vehicle (DMSO) or AMG-18 (30 mg/kg/day) in the last 4 weeks of WD. Residential PM were stained with ORO and imaged (n=5; Scale bar=50 μm). • 2C-2E. […] Macrophages were pre-loaded with fluorescently labeled cholesterol (16 hours) followed by incubation in efflux medium including APOA1 (25 μg/ml) or HDL (50 μg/ml) as acceptors for 6 hours. % Efflux was calculated as cholesterol signal in medium/cholesterol signal in medium and cell: Cholesterol efflux in (2F) Fmr1+/+ and Fmr1^−/− BMDM (n=4) and in (2G) BMDM that were pre-treated either with DMSO or AMG-18 (5 μM; 1 hour) (n=4). • 2H-2K. […] Protein lysates from macrophages used in FIG. 2C were analyzed by western blotting using specific antibodies for FMRP and β-Actin. • 2M. […]

## Cc1ccc2c(NS(=O)(=O)c3ccccc3Cl)cccc2c1Oc1ncccc1-c1ccnc(N[C@H]2CCCNC2)n1 [AMG-18]
  foam cell formation in the peritoneum: reduced
